Molecules are shown by their SMILES.

The series in a line: Metabolism test using human liver microsome fractions. The class given is in vitro ADME. As to conditions: human liver microsomes, test compound 10 μmol/L, NADPH and UDP-glucuronic acid, 37° C. The procedure:
A reaction composition solution (comprising NADPH Regenerating System, Solution A (manufactured by Corning Inc., REF. 451220) (50 μL), NADPH Regenerating System, Solution B (manufactured by Corning Inc., REF. 451200) (10 μL), 250 mM UDP-glucuronic acid (40 μL), UGT Reaction Mix Solution B (manufactured by Corning Inc., REF. 451320) (200 μL), and distilled water (640 μL)) in which human liver microsomes (manufactured by Xenotech, Cat. No. H610) or monkey liver microsomes (manufactured by Xenotech, Cat. No. P2000) (corresponding to 1 mg of protein) were suspended was prepared. After the solution was incubated at 37° C. for 5 minutes, each test compound dissolved into DMSO (manufactured by FUJIFILM Wako Pure Chemical Corporation, Code No. 043-07216) was added to the solution so that the final concentration was set to be 10 μmol/L, and a reaction was initiated. After 0, 5, 10, 15, 20, and 30 minute(s) from the initiation of the metabolism reaction, 100 μL of the reaction solution was taken out of the reaction system, and added to 200 μL of acetonitrile to stop the reaction. After the reaction was completed, the reaction solution was subjected to a work-up such as deproteinization, and then subjected to an UV-HPLC analysis to carry out the following analysis.
The peak area of each test compound was calculated by LabSolution software (Shimadzu Corporation), and the residual ratio (%) at each culture time of test material was calculated by the following equation. Residual ratio (%)=Peak area at each culture time[…]Peak area at 0 (initial time)
Next, the residual amount (nmol/mg/mL) at each culture time of test material was calculated by the following equation. Residual amount (nmol/mg/mL)=Initial concentration of reaction solution (10 nmol/mg/mL)×residual ratio÷100
Finally, a graph in which the reaction time was plotted at horizontal axis and the residual amount was plotted at longitudinal axis was prepared on Excel, and the inclination was calculated as the elimination rate (pmol/min/mg-P) within the time range in which the graph was deemed linear.
(Liver microsomes are a subcellular fraction often used to study metabolism.)
As for `CC[C@@H]1CN(Cc2cc(C(c3ccc4c(nnn4C)c3C)C(C)(C)C(=O)O)ccc2C)Cc2nc3ccccc3cc2O1` (single isomer, unassigned) [Example 38], the Human metabolic rate entry was “E (metabolic rate≥250 pmol/min/mg protein)”. Next, `CC[C@@H]1CN(Cc2cc(C(c3ccc4c(nnn4C)c3C)C(C)(C)C(=O)O)ccc2C)Cc2ccccc2O1` (single isomer, unassigned) [Example C2, reference compound]: “E (metabolic rate≥250 pmol/min/mg protein)”; `CC[C@@H]1CN(Cc2cc(C(c3ccc4c(nnn4C)c3C)C(C)(C)C(=O)O)ccc2C)Cc2cc3c(cc2O1)CCC3` (single isomer, unassigned) [Example 32]: “D (200≤metabolic rate<250 pmol/min/me protein)”; `Cc1ccc(C(c2ccc3c(nnn3C)c2C)C(C)(C)C(=O)O)cc1CN1Cc2cc3ncccc3cc2OC2(CC2)C1` (single isomer, unassigned) [Example 86, 3-(3-((3′H-spiro[cyclopropane-1,2′-[1,4]oxazepino[7,6-g]quinoline]-4′ (5′H)-yl)methyl)-4-methylphenyl)-3-(1,4-dimethyl-1H-benzo[d][1,2,3]triazol-5-yl)-2,2-dimethylpropanoic Acid]: “E (metabolic rate≥250 pmol/min/mg protein)”. Turning to `CC[C@@H]1CN(Cc2cc(C(c3ccc4c(nnn4C)c3C)C(C)(C)C(=O)O)ccc2C)Cc2cc3cccnc3cc2O1` (single isomer, unassigned) [Example 40], the Human metabolic rate result is on record as “E (metabolic rate≥250 pmol/min/mg protein)”.

Turning to `CC[C@@H]1CN(Cc2cc(C(c3ccc4c(nnn4C)c3C)C(C)(C)C(=O)O)ccc2C)Cc2cc3ncccc3cc2O1` (single isomer, unassigned) [Example 42], the Human metabolic rate result is reported as “E (metabolic rate≥250 pmol/min/mg protein)”.

`CC[C@@H]1CN(Cc2cc(C(c3ccc4c(nnn4C)c3C)C(C)(C)C(=O)O)ccc2C)Cc2cc3c(cc2O1)CCCC3` (single isomer, unassigned) [Example 34]: the Human metabolic rate result is reported as “C (150≤metabolic rate<200 pmol/min/mg protein)”. Next, `CC[C@@H]1CN(Cc2cc(C(c3ccc4c(nnn4C)c3C)C(C)(C)C(=O)O)ccc2C)Cc2ncc3ccccc3c2O1` (single isomer, unassigned) [Example 46]: “E (metabolic rate≥250 pmol/min/mg protein)”; `CC[C@@H]1CN(Cc2cc(C(c3ccc4c(nnn4C)c3C)C(C)(C)C(=O)O)ccc2C)Cc2ccc3c(c2O1)CCC3` (single isomer, unassigned) [Example 36]: “C (150≤metabolic rate<200 pmol/min/mg protein)”; `CC[C@@H]1CN(Cc2cc(C(c3ccc4c(nnn4C)c3C)C(C)(C)C(=O)O)ccc2C)Cc2cc3c(cc2O1)OC(F)(F)O3` (single isomer, unassigned) [Example 30]: “E (metabolic rate≥250 pmol/min/mg protein)”. Regarding `CC[C@H]1CN(Cc2cc(C(c3ccc4c(nnn4C)c3C)C(C)(C)C(=O)O)ccc2C)Cc2ncc3ccccc3c2O1` (single isomer, unassigned) [Example 90], the Human metabolic rate entry is “C (150≤metabolic rate<200 pmol/min/mg protein)”. To `CC[C@@H]1CN(Cc2cc(C(c3ccc4c(nnn4C)c3C)C(C)(C)C(=O)O)ccc2C)Cc2c(ccc3cn[nH]c23)O1` (single isomer, unassigned) [Example 44] belongs “E (metabolic rate≥250 pmol/min/mg protein)”; to `CC[C@@H]1CN(Cc2cc(C(c3ccc4c(nnn4C)c3C)C3(C(=O)O)CCC3)ccc2C)Cc2cc3ncccc3cc2O1` (single isomer, unassigned) [Example 88], “E (metabolic rate≥250 pmol/min/mg protein)”.
